# Source: paper PMC12114375, “Discovery of Hydrazineyl Amide Derivative of Pseudolaric Acid B for Reprogramming Tumor-Associated Macrophages Against Tumor Growth” (Molecules, 2025)
# System: M2-like polarization of BMDMs (CD206, CD86)
# Assay: Macrophage phenotype analysis by flow cytometry (CD206, CD86) in BMDMs
# Format: cell-based, mouse
# Conditions: CSF-1-differentiated BMDMs, IL-4 and IL-13, 48 h, different concentrations
# Protocol: We also extended the test to primary murine macrophages derived from bone marrow (BMDMs), which were cultured in vitro with recombinant mouse M-CSF for 6 days. The BMDMs were then stimulated with IL-4/IL-13, leading to their transformation into M2-like pro-tumoral macrophages. This transformation was characterized by an increase in both ARG1 and CD206 expression and a decrease in both NOS2 and MHC II expression. […] Subsequently, we assessed the capacity of compound 12 to inhibit the M2-like polarization of macrophages using CSF-1-differentiated mouse BMDMs. These cells were treated with IL-4 and IL-13 for 48 h, and the expression levels of CD206, an M2-type marker, and CD86, an M1-type marker, were analyzed via flow cytometry. […]
# BMDMs were collected and stained with a fluorescent antibody or the matching isotype controls for 30 min at room temperature and then tested using a BD CytoFLEX LX (Beckman, CA, USA). […] Data were analyzed using FlowJo10.4 software.
# Figure 2 Compound 12 inhibits the M2-like polarized phenotype of macrophages. […] The expression levels of the markers CD206 and CD86 on induced macrophages were determined by flow cytometry, and the mean fluorescence intensity (MFI) was analyzed with FlowJo (C), or the cells were lysed and immunoblotted to detect the indicated proteins (D). […]
compound,measurement,value
"COC(=O)C1=CC[C@@]23CC[C@@H]([C@@](C)(/C=C/C=C(\C)C(=O)NNCCO)OC2=O)[C@@]3(OC(C)=O)CC1 [compound 12, Methyl(3R,4S,4aS,9aR)-4a-acetoxy-3-((1E,3E)-5-(2-(2-hydroxyethyl)hydrazineyl)-4-methyl-5-oxopenta-1,3-dien-1-yl)-3-methyl-1-oxo-3,4,4a,5,6,9-hexahydro-1H-4,9a-ethanocyclohepta[c]pyran-7-carboxylate]","CD86 expression (MFI, flow cytometry)",increase in CD86 expression
same,"CD206 expression (MFI, flow cytometry)",decrease in CD206 expression
